From patent US20060089410A1, “Combination of chemotherapeutic drugs for increasing antitumor activity” (Titan Pharmaceuticals, Inc., priority 2002, published 2006)

How the values were obtained:
c-Myc oncogene = c-Myc oncogene expression by RT-PCR, Calu-6 cells; assay type: cell-based; conditions: for c-Myc oncogene expression: 96 hour exposure, n = 2
Experimental: (§1) T24 Bladder transitional carcinoma cells, Calu-6 anaplastic lung carcinoma cells, and SK-MES-1 squamous lung cell carcinoma cell cultures were purchased from the American Type Culture Collection (Manassas, Va.). All cell lines were cultured in RPMI-1640 with 10% fetal calf serum. For culture in microtiter dishes, cells were plated at a density of 10^4 cells/well and incubated at 37° C., 5% CO2 overnight.
(§2) After overnight incubation, drugs were added to wells in quadruplicate and incubated for 6 to 96 hours in the presence or absence of the oxyalkylene containing compound. […] the media was removed, fresh media were added with cytotoxic drug, and the cultures were incubated for another 6 hours.
Tumor cell culture mRNA was isolated by standard methods, and RT-PCR was conducted to determine levels of c-Myc oncogene expression. The c-Myc primer pair used for RT-PCR cycling was:
The c-Myc primer pair was cycled by the following program: 95° C. for 3 min., then 30 cycles of (95° C. for 1 min., then 55° C. for 1 min., then 72° C. for 1 min.) followed by holding temperature at 72° C. for 7 min. before ramping temperature to 4° C. Samples were analyzed quantitatively by 1% agarose gel electrophoresis and gel densitometry.

[1] = system: SK-MES-1 squamous lung cell carcinoma cell; assay: Crystal violet microtiter assay, Pivanex then cytotoxic drug, SK-MES-1; assay type: cell-based; conditions: for SK-MES-1 cancer cell viability (A^490 Absorbance): paclitaxel 0 μM
Experimental: as §1, §2
The wells were then washed and medium without drug was added to each well. Microtiter plates were subsequently incubated for an additional 3 days before cell density was determined by a Crystal Violet Assay. Some cultures were alternatively fixed in methanol and stained with hematoxylin and eosin (H&E) stain for 5 minutes prior to microphotography.
PIVANEX (pivaloyloxymethyl butyrate) was obtained from Titan Pharmaceuticals Inc. (South San Francisco, Calif.) and was admixed with 0.05% Intralipid™ (Fresenius Kabi, Clayton, N.C.) prior to addition to culture media. The cytotoxic drugs gemcitabine (Gemzar; Eli Lilly and Co., Indianapolis, Ind.), cisplatin (Platinol, Bristol-Myers Squibb Co., Princeton, N.J.), paclitaxel (Taxol; Bristol-Myers Squibb Co., Princeton, N.J.), and docetaxel (Taxotere, Aventis Pharmaceuticals Products, Inc., Bridgewater, N.J.) were studied with PIVANEX.
Cells in microtiter wells were rinsed with PBS and fixed in two volumes of 100% cold methanol for 5 minutes. One volume of 0.5% crystal violet in 20% methanol was added and the attached cells stained for 10 minutes. The cells were then washed and crystal violet was eluted with 0.1 N sodium citrate buffer and read on an ELISA plate reader at 490 nm.

tumor cells = assay: Growth inhibitory and cytotoxic effects on tumor cells in tissue culture; assay type: cell-based; conditions: tumor cell line dependent
From the text: Testing of a pivaloyloxymethyl butyrate dose and schedule interactions with chemotherapy in tissue culture was undertaken to facilitate clinical planning.
The observed morphologic changes consistent with a more differentiated phenotype prompted investigation of oncogene expression following exposure to pivaloyloxymethyl butyrate.

T24 bladder cancer cells = assay: Pretreatment followed by various chemotherapeutic agents, T24; assay type: cell-based, human
Experimental: (§3) Human T24 bladder and A549 lung cancer cells were exposed to increasing concentrations of pivaloyloxymethyl butyrate for 6 or 72 hours followed by exposure to various chemotherapeutic agents. […] At higher dosages the increase in cytotoxicity following the sequential regimen would show after a shorter induction period with pivaloyloxymethyl butyrate as discussed above.

A549 lung cancer cells = assay: Pretreatment followed by various chemotherapeutic agents, A549; assay type: cell-based, human
Experimental: as §3

[2] = Preliminary Phase I/II clinical trials, lung cancer and refractory malignancies metastatic to the liver; assay type: in vivo, human
[3] = Biological evaluations (myeloablation, myelosuppression)
From the text: Pivaloyloxymethyl butyrate functions as a differentiating agent with activity against multiple tumor cell types in culture.

SMILES: CCCC(=O)OCOC(=O)C(C)(C)C [Pivanex, pivaloyloxymethyl butyrate]
- concentrations (as low as) that decreased the expression of c-Myc oncogene (c-Myc oncogene; Calu-6, 96 hours in culture): 10 to 50 µM
- c-Myc oncogene expression (c-Myc oncogene; Pivanex 10 μM): 893 PCR units
- c-Myc oncogene expression (c-Myc oncogene; Pivanex 25 μM): 743 PCR units
- c-Myc oncogene expression (c-Myc oncogene; Pivanex 50 μM): 711 PCR units
- c-Myc oncogene expression (c-Myc oncogene; Pivanex 100 μM): 647 PCR units
- c-Myc oncogene expression (c-Myc oncogene; Pivanex 200 μM): 460 PCR units
- SK-MES-1 cancer cell viability (A^490 Absorbance) ([1]; Pivanex 10 μM): 0.743
- SK-MES-1 non-small cancer cell viability (A^490 Absorbance) ([1]; Pivanex 25 μM alone): 1.852
- SK-MES-1 cancer cell viability (A^490 Absorbance) ([1]; Pivanex 50 μM): 0.769
- SK-MES-1 non-small cancer cell viability (A^490 Absorbance) ([1]; Pivanex 100 μM alone): 1.908
- SK-MES-1 non-small cancer cell viability (A^490 Absorbance) ([1]; Pivanex 200 μM alone): 1.952
- concentrations at which cytotoxicity was observed (tumor cells; 6-hour exposure): greater than 125 μM
- concentrations at which cytotoxicity was observed (tumor cells; 72 hours of treatment): greater than 25 μM
- enhancement of cytotoxicity of chemotherapeutic agents (T24 bladder cancer cells; T24, 6-hour pretreatment, lower doses): did not enhance cytotoxicity
- enhancement of cytotoxicity of chemotherapeutic agents (T24 bladder cancer cells; T24, 72-hour pretreatment): did enhance drug-induced cytotoxicity
- enhancement of cytotoxicity of chemotherapeutic agents (A549 lung cancer cells; A549, 6-hour pretreatment, lower doses): did not enhance cytotoxicity
- enhancement of cytotoxicity of chemotherapeutic agents (A549 lung cancer cells; A549, 72-hour pretreatment): did enhance drug-induced cytotoxicity
- tolerability [2]: well tolerated
- myeloablation / myelosuppression [3]: non-myeloablative and non-myelosuppressive
